Assay results as given in patent US6677456B2, “Pentacyclic taxan compound” (Daiichi Pharmaceutical Co., Ltd., priority 1999, dated 2004).
Like-named read-outs stand apart in the source and are kept apart here.

Columns and labels:
B16 Melanoma BL6 = assay: Antitumor test, B16 Melanoma BL6 subcutaneously transplanted into mice (Test Example 2); format: in vivo, mice (C57BL/6); settings: 4 days after transplantation, tumor weight after 15 days
Method: B16 Melanoma BL6 was subcutaneously transplanted into mice (C57BL/6), and each compound was administered 4 days thereafter. […] In the case of oral administration, each compound was administered by suspending it in a 0.5% carboxymethylcellulose sodium aqueous solution. Each animal was anatomized after 15 days of the transplantation to measure tumor weight. Antitumor effect was calculated by the following formula.
(§1) {1−(tumor weight of compound-administered group/tumor weight of solvent-administered group)}×100
Six mice were used in each group.

[1] = Blood concentration and oral BA in monkey after single intravenous or oral dose (Test Example 4); format: in vivo, female Macaca irus (monkey); settings: for Oral BA: ratio of oral AUC to intravenous AUC; for AUC(0-inf): female, Macaca irus (cynomolgus), blood
Method: The AUCO0-∞ means area under the blood concentration time curve of a drug concentration in blood during a period of from the time of administration (0 h) to the infinite time and it can be calculated in accordance with the method (trapezoidal rule) disclosed in Kiyoshi Yamaoka and Yusuke Tanigawara, Yakubutsu Sokudoron Nyumon (A Guide to Pharmacokinetics), pages 116-117. In addition, ratio of the AUC at the time of oral administration to the AUC at the time of intravenous administration was calculated as oral BA.
Animal: female Macaca irus, Administration method (compound of formula (B)) [intravenous] EtOH:Tween 80:5% glucose=5:5:90, [oral] […] 10% β-CyD-SBE7 (pH=3.5 in physiological saline), [oral] 40 mM acetate buffer (pH 4.0)

[2] = test system: Mouse fibrosarcoma Meth A; assay: Antitumor test, mouse fibrosarcoma Meth A subcutaneously transplanted into mice (Test Example 1); format: in vivo, mice (Balb/c); settings: intravenous, tumor weight on 17th day
Method: (§2) Mouse fibrosarcoma Meth A was subcutaneously transplanted into mice (line name; Balb/c), and each compound dissolved in a mixed solvent of ethanol, Tween 80 and 5% glucose (5:5:90 (v/v)) was administered by intravenous injection after 6, 8 or 10 days (or only after 6 days) of the transplantation. Each animal was anatomized on the 17th day to examine tumor weight, platelet numbers and renal toxicity. Six mice were used in each group.
Antitumor effect was calculated by the following formula.
as §1

[3] = Platelet numbers, renal toxicity findings and deaths in the Meth A-bearing mice (Test Example 1); format: in vivo, mice (Balb/c); settings: intravenous, 17th day; for Platelet numbers: % of solvent-administered group
Method: as §2
The number of platelets was expressed by (platelets of compound-administered group/platelets of solvent-administered group)×100.
The renal toxicity findings were expressed as “changed” when a change such as fading was found by macroscopic observation at the time of anatomy or when a change such as precipitation of hyaline droplet substance in the renal tubular cell cytoplasm was found by a histological inspection.

human liver microsome = assay: Metabolism in Human Microsome P450 (Test Example 3)
Method: Each of the samples to be evaluated was dissolved in acetonitrile/water (1:1, v/v) to a concentration of 500 μM, and the solution was mixed with human liver microsome (Xenotech LLC) and other components such as various coenzymes and buffer solution and allowed to generate the metabolic reaction at 37° C. The reaction solution was composed of phosphate buffer (0.076 M; final concentration, the same shall apply hereinafter), sample to be evaluated (10 μM), human liver microsome (1 mg/ml), glucose 6-phosphate (10 mM), glucose-6-phosphate dehydrogenase (1 unit/ml), magnesium chloride (4 mM) and reduced nicotinamide adenine dinucleotide phosphate (β-NADPH, 1 mM), and 500 μl of the solution was used in one reaction. In this case, the reaction solution excluding β-NADPH was incubated in advance at 37° C. for 2 minutes and then the reaction was started by adding a β-NADPH aqueous solution (50 mM, 10 μl).
The reaction was terminated by adding 1 ml of ice-cooled acetonitrile 1, 2 or 5 minutes after commencement of the reaction.
In this connection, a sample of 0 minute after commencement of the reaction was prepared by adding water instead of the β-NADPH aqueous solution and immediately adding 1 ml of acetonitrile. A 100 μl portion of an internal standard substance was added to each of these samples, and the reaction solution was centrifuged for 15 minutes. The resulting supernatant was injected into a high performance liquid chromatography (HPLC) to measure concentration of the sample to be evaluated. […] By plotting the amount of formed metabolite against the reaction time and carrying out linear regression by the method of least squares, amount of the metabolite formed per 1 minute (metabolic rate constant: k (nmol/min/mg protein)) was calculated from the slope.
From the thus obtained metabolic rate constant k (nmol/min/mg protein), the liver-specific clearance (CLint) was calculated by the following formula. […]
Theoretical bioavailability (F) value was calculated from the CLh by the following formula.

CC(=O)O[C@@]12CO[C@@H]1CC[C@@]1(C)[C@@H]3O[C@H](CN(C)C)O[C@@H]3C3=C(C)[C@@H](OC(=O)[C@H](O)[C@@H](NC(=O)OC(C)(C)C)c4ncccc4F)C[C@@](O)([C@@H](OC(=O)c4ccccc4)[C@@H]12)C3(C)C [Example 7, (1S,2S,3R,4S,5R,8R,9S,10R,13S)-4-Acetoxy-2-benzoyloxy-9,10-[(1S)-2-(dimethylamino)ethylidenedioxy]-5,20-epoxy-1-hydroxytax-11-en-13-yl (2R,3S)-3-(tert-butoxycarbonylamino)-3-(3-fluoro-2-pyridyl)-2-hydroxypropionate]
Antitumor effect (B16 Melanoma BL6; 7.9 mg/kg intravenous): 91.5%
Antitumor effect (B16 Melanoma BL6; 7.9 mg/kg oral): 91.5%
Antitumor effect (B16 Melanoma BL6; 11.9 mg/kg intravenous): 95.5%
Antitumor effect (B16 Melanoma BL6; 11.9 mg/kg oral): 97.4%
Oral BA ([1]; 1.8 mg/kg): 62.4%
AUC(0-inf) ([1]; single dose 1.8 mg/kg intravenous, average of 4 monkeys, read-out: AUC0-∞ Intravenous): 994 ng·h/mL
AUC(0-inf) ([1]; single dose 1.8 mg/kg oral, average of 4 monkeys, read-out: AUC0-∞ Oral): 621 ng·h/mL

COc1ccc([C@H](NC(=O)OC(C)(C)C)[C@@H](O)C(=O)O[C@H]2C[C@@]3(O)[C@@H](OC(=O)c4ccccc4)[C@H]4[C@@](C)(CC[C@H]5OC[C@]54OC(C)=O)[C@@H]4O[C@H](CN5CCOCC5)O[C@@H]4C(=C2C)C3(C)C)nc1 [Example 1, (1S,2S,3R,4S,5R,8R,9S,10R,13S)-4-Acetoxy-2-benzoyloxy-5,20-epoxy-1-hydroxy-9,10-[(1S)-2-(morpholino)ethylidenedioxy]tax-11-en-13-yl (2R,3S)-3-(tert-butoxycarbonylamino)-2-hydroxy-3-(5-methoxy-2-pyridyl)propionate]
melting point: 160 to 161 °C

CC(=O)O[C@@]12CO[C@@H]1CC[C@@]1(C)[C@@H]3O[C@H](CN4CCOCC4)O[C@@H]3C3=C(C)[C@@H](OC(=O)[C@H](O)[C@@H](NC(=O)OC(C)(C)C)c4ccccn4)C[C@@](O)([C@@H](OC(=O)c4ccccc4)[C@@H]12)C3(C)C [Compound (B)]
Antitumor effect (B16 Melanoma BL6; 13.3 mg/kg oral): 90.5%
Antitumor effect (B16 Melanoma BL6; 20.0 mg/kg oral): 97.4%
Antitumor effect ([2]; 22.5 mg/kg × 1 (day 6)): 69%
Antitumor effect ([2]; 32.4 mg/kg × 1 (day 6), three deaths among 6 animals): 83%
Platelet numbers ([3]; 22.5 mg/kg × 1): 124%
Renal toxicity findings ([3]; 32.4 mg/kg × 1): no change
Platelet numbers ([3]; 32.4 mg/kg × 1): 142%
Oral BA ([1]; 1.6 mg/kg): 7.1%
AUC(0-inf) ([1]; single dose 1.6 mg/kg intravenous, one monkey, read-out: AUC0-∞ Intravenous): 394 ng·h/mL
AUC(0-inf) ([1]; single dose 1.6 mg/kg oral, one monkey (different individual), read-out: AUC0-∞ Oral): 28.1 ng·h/mL
Oral absorption property in monkey (in words) ([1]; in vivo, po): low

(1S,2S,3R,4S,5R,8R,9S,10R,13S)-4-Acetoxy-2-benzoyloxy-5,20-epoxy-1-hydroxy-9,10-[(1S)-2-(morpholino)ethylidenedioxy]tax-11-en-13-yl (2R,3S)-3-(tert-butoxycarbonylamino)-3-(5-fluoro-2-pyridyl)-2-hydroxypropionate [Example 3]
Theoretical F value of unchanged compound (human liver microsome; calculated from CLh (Well-stirred model, Q 20 ml/min/kg)): 0.92
Metabolic rate constant (human liver microsome; human liver microsome 1 mg/ml, sample 10 μM, 37° C., 0-5 minutes): 0.02 nmol/min/mg protein
Clint (human liver microsome; liver-specific clearance calculated from the metabolic rate constant): 1.8 mL/min/kg

CC(=O)O[C@@]12CO[C@@H]1C[C@H](O)[C@@]1(C)C(=O)[C@H](O)C3=C(C)[C@@H](OC(=O)[C@H](O)[C@@H](NC(=O)OC(C)(C)C)c4ccccc4)C[C@@](O)([C@@H](OC(=O)c4ccccc4)[C@H]21)C3(C)C [(A), taxotere]
Antitumor effect (B16 Melanoma BL6; 180.0 mg/kg intravenous): 95.7%
Antitumor effect (B16 Melanoma BL6; 600.0 mg/kg oral): 6.2%
